Measured values: patent US20080194590A1, “4-Piperazinylthieno [2,3-D] Pyrimidine Compounds as Platelet Aggregation Inhibitors” (Pfizer Inc, priority 2005, published 2008)
Values joined by “and” are separate entries in the source; they are usually repeats but may differ in a detail not shown here. Equal values may be shown once.

Key:
[1] = target: T1, P2Y12 receptor (Homo sapiens, UniProt Q9H244); experiment: Human P2Y12 recombinant cell membrane binding assay with 33P 2MeS-ADP (Assay 3); set-up: expressed in transfected cells; host or cells: HEK cells; conditions: for IC50 / Ki: HEK cell membranes expressing P2Y12, multiple lines = multiple runs; for [33P]-2MeS-ADP Binding to Recombinant Human P2Y12 Membranes (Assay 3) % Inhibition / inhibition at 10 µM: highest concentration tested 10 μM; for inhibition at 10 µM: read-out: [33P]-2MeS-ADP Binding to Recombinant Human P2Y12 Membranes (Assay 3) % Inhibition
Experimental: 3. Human P2Y12 Recombinant Cell Membrane Binding Assay with ^33P 2MeS-ADP.
The ability of a test compound to bind to the P2Y12 receptor was evaluated in a recombinant cell membrane binding assay. In this competitive binding assay, the test compound competed against a radiolabelled agonist for binding to the P2Y12 receptor, expressed on the cell membrane. Inhibition of binding of the labeled material was measured and correlated to the amount and potency of the test compound. Data from this assay are presented in Table F. This binding assay is a modification of the procedure in Takasaki, J. et. al, Mol. Pharmacol., 2001, Vol. 60, pg. 432.
HEK cells were transfected with the pDONR201P2Y12 vector and cultured in MEM with GlutaMAX I, Earle's salts, 25 mM HEPES (Gibco # 42360-032) containing 10% dialyzed FBS (Gibco # 26400-044), 100 μM nonessential amino acids (Gibco # 11140-050), 1 mM sodium pyruvate (Gibco # 11360-070), 0.05% geneticin (Gibco #10131-027), 3 μg/mL blasticidin (Fluka brand from Sigma # 15205), and 0.5 μg/mL puromycin (Sigma # P-8833).
Confluent cells were washed once with cold DPBS (Gibco # 14190-136). Fresh DPBS was added and the cells were scraped and centrifuged at 500×g for 5 minutes at 4° C. The cell pellets were resuspended in TEE buffer (25 mM Tris, 5 mM EDTA, 5 mM EGTA) containing 1 protease inhibitor cocktail tablet (Roche # 1 873 580) per 50 mL (called TEE+Complete) and can be flash frozen at this point.
In one embodiment, frozen cell pellets were used to prepare the membranes. In that embodiment, the frozen cell pellets were thawed on ice. In another embodiment, cell pellets may be used without flash freezing before moving on to the next step.
Cell pellets were resuspended in TEE buffer+Complete and homogenized in a glass dounce for 12 strokes. The cell suspension was centrifuged at 500×g for 5 minutes at 4° C. The supernatant was saved and centrifuged at 20,000×g for 20 minutes at 4° C. This supernatant was discarded and the cell pellet resuspended in TEE buffer+Complete and homogenized in a glass dounce for 12 strokes. This suspension was centrifuged at 20,000×g for 20 minutes at 4° C. and the supernatant discarded. The pellet was resuspended in assay buffer (50 mM Tris, 100 mM NaCl, 1 mM EDTA) containing one protease inhibitor cocktail tablet per 50 mL, and can be flash frozen as 1 mL aliquots at this point.
Dry compounds were diluted as 10 mM DMSO stocks and tested in a seven-point, three-fold dilution series run in triplicate beginning at 10 μM, final concentration. A 1 mM DMSO intermediate stock was made in a dilution plate and from this the seven dilutions were made to 5× the final concentration in assay buffer containing 0.02% BSA.
To a polypropylene assay plate (Costar # 3365) the following were added: a) 30 μL of assay buffer containing one protease inhibitor cocktail tablet per 50 mL; b) 30 μL of 1 nM ^33P 2MeS-ADP made in assay buffer containing 0.02% BSA and 12.5 mg/mL ascorbic acid; 30 μL of cold 1.5 μM 2MeS-ADP for the positive control wells, or assay buffer containing 0.02% BSA and 12.5 mg/mL ascorbic acid for the negative control wells, or 5× drug dilution; and 60 μL of 1 ug/well membranes.
The plates were incubated at room temperature for 1 hour. The reaction was stopped using a cell harvester to transfer the reaction mixture onto GF/B UniFilter plates (Perkin Elmer # 6005177), and washed three times with wash buffer (50 mM Tris), filtering between each wash. The filter plates were dried for approximately 20 minutes in an oven at 50° C. Back seals were adhered to the filter plates and 25 uL of Microscint 20 scintillation fluid (Perkin Elmer # 6013621) were added. The filter plates were sealed, shaken for 30 minutes, and counted on a Top Count. Data were analyzed using a four-parameter curve fit with a fixed minimum and maximum experimentally defined as the average positive and negative controls on each plate, and with a hill slope equal to one.

[2] = target: T1, P2Y12 receptor; experiment: Inhibition of [33P]2MeS-ADP binding to washed human platelet membranes (Assay 1); set-up: the P2Y12 receptor, which is found on the surface of platelets; tissue Interstate Blood bank, Memphis, Tenn; host or cells: human platelets from platelet rich plasma; conditions: for inhibition at 10 µM: highest concentration tested 10 μM; for IC50 / Ki: washed human platelet membranes
Experimental: 1. Inhibition of [^33P]2MeS-ADP Binding to Washed Human Platelet Membranes. The ability of a test compound to bind to the P2Y12 receptor was evaluated in a platelet membrane binding assay. In this competitive binding assay, the test compound competed against a radiolabelled agonist for binding to the P2Y12 receptor, which is found on the surface of platelets. Inhibition of binding of the labeled material was measured and correlated to the amount and potency of the test compound. Data from this assay are presented in Table F. Platelet rich plasma (“PRP”) was obtained from the Interstate Blood bank, Memphis, Tenn. Platelet rich plasma was prepared from blood units collected in ACD ((prepared by (1) combining: 2.5 g sodium citrate (Sigma S-4641); 1.5 g citric acid (Sigma C-0706); and, 2.0 g dextrose (Sigma G-7528); (2) bringing pH to 4.5; and (3) adding water to bring volume to 100 mL) and using the light spin protocol; this protocol involves centrifugation at room temperature for approximately 20 minutes at speeds up to 160×g. Platelet rich plasma is supplied in units of approximately 200 ml. Each unit is distributed into four 50 mL polypropylene conical tubes for centrifugation, Blood from each donor is maintained separately.
The 50 mL tubes were centrifuged for 15 minutes at 1100 rpm in Sorvall RT6000D (with H1000B rotor). Internal centrifuge temperature was maintained at approximately room temperature (22-24° C.). This spin pelleted cellular components remaining from the PRP preparation. The supernatant was decanted into fresh 50 mL tubes. To avoid carry over of cellular components following the room temperature centrifugation, approximately 5 mL of PRP was left in the tube and discarded. The tubes were capped and inverted 2-3 times and allowed to stand at room temperature for at least 15 minutes following inversion.
Optionally, a Coulter Counter may be used to count platelets from the resting samples during the resting phase. Normal human platelet counts are expected to range from 200,000 to 400,000 per μL of PRP supernatant.
The 50 mL tubes containing PRP supernatant were centrifuged for 15 minutes at 2300-2400 rpm to loosely pellet the platelets. The supernatant from this spin was decanted immediately into a clean cell culture bottle (Corning bottle) and saved in case further centrifugation was needed. The pellet of each tube was resuspended in 2-4 mL of Wash buffer (pH 6.5) (1 L prepared new daily—134 mM NaCl (Sigma S-5150); 3 mM KCl (Sigma P-9333); 1 mM CaCl2 (JT Baker 1311-01); 2 mM MgCl2 (Sigma M-2670); 5 mM glucose (EM 4074-2); 0.3 mM NaH2PO4 (Sigma S-9638)/12 mM NaHCO3 (J T Baker 3506-01); 5 mM HEPES pH 7.4 (Gibco 12379-012); 0.35% BSA (Sigma A-7906); 330 mg Heparin (bovine lung, Sigma H-4898); and 30 mL of ACD) by repeated gentle aspiration using disposable polypropylene sample pipettes.
Wash buffer (pH 6.5) was added to each tube to bring the volume to approximately 40 mL. Each tube was incubated for at least 15 minutes at 37° C.
The tubes were then centrifuged again for 15 minutes at 2300-2400 rpm to loosely pellet the platelets. The supernatant was decanted and discarded. The pellet was resuspended in 2-4 mL of Assay buffer (pH 7.4) (1 L volume—134 mM NaCl; 3 mM KCl; 1 mM CaCl2; 2 mM MgCl2; 5 mM glucose; 0.3 mM NaH2PO4/12 mM NaHCO3; 5 mM HEPES pH 7.4; and 0.35% BSA) by repeated aspiration using disposable polypropylene sample pipettes.
The pooled platelet preparation was counted using a Coulter Counter. The final concentration of platelets was brought to 1×10^6 per μL using Assay buffer pH 7.4. The platelets were rested for a minimum of 45 minutes at 37° C. before use in the assay.
In one embodiment, the compounds were tested in 96-well microtiter filterplates (Millipore Multiscreen-FB opaque plates, #MAFBNOB50). These plates were used in the assay and pre-wet with 50 μL of Assay buffer pH 7.4 then filtered through completely with a Millipore plate vacuum. […]

T1 sequence (Q9H244 whole entry): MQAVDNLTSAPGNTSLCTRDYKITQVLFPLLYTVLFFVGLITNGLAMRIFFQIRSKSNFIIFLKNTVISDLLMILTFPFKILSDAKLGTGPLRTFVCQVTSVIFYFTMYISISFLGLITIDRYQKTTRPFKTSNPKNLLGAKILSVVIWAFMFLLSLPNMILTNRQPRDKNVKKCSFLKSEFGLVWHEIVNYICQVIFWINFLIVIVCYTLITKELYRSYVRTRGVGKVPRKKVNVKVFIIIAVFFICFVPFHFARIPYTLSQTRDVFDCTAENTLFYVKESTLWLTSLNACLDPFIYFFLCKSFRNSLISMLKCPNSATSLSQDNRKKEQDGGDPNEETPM

Row | Compound | IC50 [1] | Ki [1] | [33P]-2MeS-ADP Binding to Recombinant Human P2Y12 Membranes (Assay 3) % Inhibition [1] [%] | inhibition at 10 µM [1] [%] | inhibition at 10 µM [2] [%] | IC50 [2] [nM] | Ki [2] [nM]
1 | CCc1cc2c(N3CCN(C(=O)CC(F)(F)F)CC3)nc(NC[C@@H](O)CO)nc2s1 [Example 36, (2R)-3-({6-Ethyl-4-[4-(3,3,3-trifluoropropanoyl)piperazin-1-yl]thieno[2,3-d]pyrimidin-2-yl}amino)propane-1,2-diol] | 1050 nM and 1940 nM | 557 nM and 1010 nM | 70.7 | 75.7 | – | – | –
2 | CCc1cc2c(N3CCN(C(=O)Cc4ccccc4)CC3)nc(NCCCc3ccccc3)nc2s1 [Example 7, 6-Ethyl-4-[4-(phenylacetyl)piperazin-1-yl]-N-(3-phenylpropyl)thieno[2,3-d]pyrimidin-2-amine] | – | – | – | – | 37.4 | > 10000 | –
3 | CCc1cc2c(N3CCN(C(=O)Cc4ccccc4)CC3)nc(NC3CCCC3)nc2s1 [Example 12, N-Cyclopentyl-6-ethyl-4-[4-(phenylacetyl)piperazin-1-yl]thieno[2,3-d]pyrimidin-2-amine] | – | – | – | – | 43.6 | > 10000 | –
4 | CCc1cc2c(N3CCN(C(=O)Cc4ccccc4)CC3)nc(NCCCO)nc2s1 [Example 9, 3-({6-Ethyl-4-[4-(phenylacetyl)piperazin-1-yl]thieno[2,3-d]pyrimidin-2-yl}amino)propan-1-ol] | – | – | – | – | 75 | 3400 | 3210
5 | CCc1cc2c(N3CCN(C(=O)Cc4ccccc4)CC3)nc(NC3CCCCC3)nc2s1 [Example 10, N-Cyclohexyl-6-ethyl-4-[4-(phenylacetyl)piperazin-1-yl]thieno[2,3-d]pyrimidin-2-amine] | – | – | – | – | 37.3 | > 10000 | –
6 | CCc1cc2c(N3CCN(C(=O)c4ccc(-c5ccccc5)cc4)CC3)nc(NCCN(C)C)nc2s1 [Example 28, N′-{4-[4-(1,1′-biphenyl-4-ylcarbonyl)piperazin-1-yl]-6-ethylthieno[2,3-d]pyrimidin-2-yl}-N,N-dimethylethane-1,2-diamine] | 44 nM and 47 nM | 27 nM and 29 nM | 98.44 | 92.3 | – | – | –
7 | CCOC(CCNc1nc(N2CCN(C(=O)c3ccc(-c4ccccc4)cc3)CC2)c2cc(CC)sc2n1)OCC [Example 22, 4-[4-(1,1′-Biphenyl-4-ylcarbonyl)piperazin-1-yl]-N-(3,3-diethoxypropyl)-6-ethylthieno[2,3-d]pyrimidin-2-amine] | 138 nM | 81 nM | – | 86 | – | – | –
8 | CCc1cc2c(N3CCN(C(=O)c4ccc(-c5ccccc5)cc4)CC3)nc(NCCC(=O)O)nc2s1 [Example 24, N-{4-[4-(1,1′-Biphenyl-4-ylcarbonyl)piperazin-1-yl]-6-ethylthieno[2,3-d]pyrimidin-2-yl}-beta-alanine] | 13.2 nM | 8 nM | – | 85 | – | – | –
9 | CCc1cc2c(N3CCN(C(=O)c4cccc(-c5ccccc5)c4)CC3)nc(NC(CO)CO)nc2s1 [Example 32, 2-({4-[4-(1,1′-biphenyl-3-ylcarbonyl)piperazin-1-yl]-6-ethylthieno[2,3-d]pyrimidin-2-yl}amino)propane-1,3-diol] | 96 nM | 51 nM | – | 96.5 | – | – | –
10 | CCc1cc2c(N3CCN(C(=O)Cc4ccccc4)CC3)nc(NCc3ccco3)nc2s1 [Example 8, 6-Ethyl-N-(2-furylmethyl)-4-[4-(phenylacetyl)piperazin-1-yl]thieno[2,3-d]pyrimidin-2-amine] | – | – | – | – | 42.2 | 9850 | 9320
11 | CCc1cc2c(N3CCN(C(=O)Cc4ccccc4)CC3)nc(NCc3ccc(F)cc3)nc2s1 [Example 13, 6-Ethyl-N-(4-fluorobenzyl)-4-[4-(phenylacetyl)piperazin-1-yl]thieno[2,3-d]pyrimidin-2-amine] | – | – | – | – | 45.6 | > 10000 | –
12 | CCc1cc2c(N3CCN(C(=O)c4ccc(-c5ccccc5)cc4)CC3)nc(NCCC(=O)NC(CO)CO)nc2s1 [Example 25, N^3-{4-[4-(1,1′-Biphenyl-4-ylcarbonyl)piperazin-1-yl]-6-ethylthieno[2,3-d]pyrimidin-2-yl}-N˜1˜-[2-hydroxy-1-(hydroxymethyl)ethyl]-beta-alaninamide] | 30 nM | 17 nM | – | 94 | – | – | –
